From patent US8569484B2, “Heterocyclic urea derivatives and methods of use thereof” (Astrazeneca AB, priority 2009, dated 2013) come the findings set out here.

In brackets after ≈: the same amount, converted by molar mass.

For orientation: inhibition means the relative decrease from the control value, in per cent. Broadly, the MIC is the lowest concentration found to suppress growth.

For assay [1], the target named is S. aureus GyrB ATPase (Staphylococcus aureus, UniProt P0A0K8). Kind of assay: S. aureus GyrB ATPase inhibition (ammonium molybdate/malachite green phosphate detection). In kind it is biochemical. To be noted: 1 μM compound; S. aureus GyrB ATPase; read-out: Percent Inhibition (1 μM). Here is the method: S. aureus GyrB ATPase Inhibition Activity: Compounds may be tested for inhibition of S. aureus GyrB ATPase activity using an ammonium molybdate/malachite green-based phosphate detection assay (Lanzetta, P. A., L. J. Alvarez, P. S. Reinach, and O. A. Candia, 1979, 100: 95-97). Assays can be performed in multiwell plates in 30 μl reactions containing: 50 mM Hepes buffer pH 7.5, 75 mM ammonium acetate, 8.0 mM magnesium chloride, 0.5 mM ethylenediaminetetraacetic acid, 5% glycerol, 1.0 mM 1,4-Dithio-DL-threitol, 200 nM bovine serum albumin, 1.0 μg/ml sheared salmon sperm DNA, 250 pM E. coli GyrA, 250 pM S. aureus GyrB, 250 μM ATP, and compound in dimethylsulfoxide. Reactions can be quenched with 30 μl of ammonium molybdate/malachite green detection reagent containing 1.2 mM malachite green hydrochloride, 8.5 mM ammonium molybdate tetrahydrate, and 1 M hydrochloric acid. Plates can be read in an absorbance plate reader at 650 nm and percent inhibition values can be calculated using dimethylsulfoxide (2%)-containing reactions as 0% inhibition and EDTA-containing ([…]) reactions as 100% inhibition controls. An IC50 measurement of compound potency for each compound can be determined from reactions performed in the presence of 10 different compound concentrations.

Assay [2] deals with S. aureus. Kind of assay: Bacterial susceptibility testing in liquid media (MIC). Format: cell-based. To be noted: Staphylococcus aureus; against S. aureus; lowest concentration able to reduce growth by 80% or more. The source says:
Compounds may be tested for antimicrobial activity by susceptibility testing in liquid media. Compounds may be dissolved in dimethylsulfoxide and tested in 10 doubling dilutions in the susceptibility assays. The organisms used in the assay may be grown overnight on suitable agar media and then suspended in a liquid medium appropriate for the growth of the organism. The suspension can be a 0.5 McFarland and a further 1 in 10 dilution can be made into the same liquid medium to prepare the final organism suspension in 100 μL. Plates can be incubated under appropriate conditions at 37° C. for 24 hrs prior to reading. The Minimum Inhibitory Concentration (MIC) may be determined as the lowest drug concentration able to reduce growth by 80% or more.

Chain of S. aureus GyrB ATPase (P0AES4 whole entry): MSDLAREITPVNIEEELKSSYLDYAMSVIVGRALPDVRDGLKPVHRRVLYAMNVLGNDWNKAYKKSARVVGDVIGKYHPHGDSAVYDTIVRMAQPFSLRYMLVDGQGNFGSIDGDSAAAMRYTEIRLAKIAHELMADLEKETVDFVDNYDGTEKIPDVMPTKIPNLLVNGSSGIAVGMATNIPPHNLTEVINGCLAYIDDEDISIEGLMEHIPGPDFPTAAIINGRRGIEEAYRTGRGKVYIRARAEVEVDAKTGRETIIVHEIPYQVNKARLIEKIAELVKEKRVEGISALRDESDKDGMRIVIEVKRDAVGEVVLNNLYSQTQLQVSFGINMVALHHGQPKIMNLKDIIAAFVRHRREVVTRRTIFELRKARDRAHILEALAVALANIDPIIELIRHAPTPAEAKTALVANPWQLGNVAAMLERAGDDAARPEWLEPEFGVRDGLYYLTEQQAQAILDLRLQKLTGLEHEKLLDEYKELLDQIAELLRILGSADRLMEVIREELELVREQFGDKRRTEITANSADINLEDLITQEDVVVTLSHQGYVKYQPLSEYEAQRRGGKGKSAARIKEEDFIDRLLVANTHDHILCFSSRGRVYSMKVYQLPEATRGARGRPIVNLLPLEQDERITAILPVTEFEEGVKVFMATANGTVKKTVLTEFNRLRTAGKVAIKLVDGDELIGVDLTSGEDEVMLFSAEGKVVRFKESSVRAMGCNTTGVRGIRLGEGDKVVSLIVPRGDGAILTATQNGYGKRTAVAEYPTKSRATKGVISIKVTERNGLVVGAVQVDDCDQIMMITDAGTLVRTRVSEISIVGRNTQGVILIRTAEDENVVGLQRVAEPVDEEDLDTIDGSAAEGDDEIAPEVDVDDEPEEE
Chain of S. aureus GyrB ATPase (P0A0K8 whole entry): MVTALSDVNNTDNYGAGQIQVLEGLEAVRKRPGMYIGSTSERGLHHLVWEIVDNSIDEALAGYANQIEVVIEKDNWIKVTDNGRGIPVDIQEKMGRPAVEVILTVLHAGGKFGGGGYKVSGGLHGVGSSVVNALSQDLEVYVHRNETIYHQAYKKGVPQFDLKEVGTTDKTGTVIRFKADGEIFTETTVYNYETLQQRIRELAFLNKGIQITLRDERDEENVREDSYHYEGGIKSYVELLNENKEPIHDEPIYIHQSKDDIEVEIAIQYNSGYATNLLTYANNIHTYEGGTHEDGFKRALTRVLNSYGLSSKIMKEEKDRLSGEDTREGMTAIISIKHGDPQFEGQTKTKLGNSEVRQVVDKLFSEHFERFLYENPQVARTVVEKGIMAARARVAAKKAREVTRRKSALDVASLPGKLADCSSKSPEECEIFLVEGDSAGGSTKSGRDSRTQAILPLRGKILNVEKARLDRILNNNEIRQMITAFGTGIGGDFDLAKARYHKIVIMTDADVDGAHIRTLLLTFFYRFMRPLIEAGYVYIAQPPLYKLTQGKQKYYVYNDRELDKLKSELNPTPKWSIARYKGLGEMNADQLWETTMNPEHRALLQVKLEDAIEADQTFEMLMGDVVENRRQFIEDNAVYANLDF

As to `CCNC(=O)Nc1cc(-c2nc(C(F)(F)F)cs2)c(-c2cnc3c(c2)c(=O)c(C(=O)O)cn3CCO)cn1` [Example 10, 6-{6-[(ethylcarbamoyl)amino]-4-[4-(trifluoromethyl)-1,3-thiazol-2-yl]pyridin-3-yl}-1-(2-hydroxyethyl)-4-oxo-1,4-dihydro-1,8-naphthyridine-3-carboxylic acid], the inhibition at 1 µM in assay [1] turned out to be 93%. The MIC in assay [2] was 0.55 µM (≈ 0.302 µg/mL). For `CCNC(=O)Nc1cc(-c2nc(-c3cnn(C)c3)cs2)c(-c2cc3c(=O)c(C(=O)O)cn(Cc4cn(C)cn4)c3cn2)cn1` [Example 76, 6-(6-(3-ethylureido)-4-(4-(1-methyl-1H-pyrazol-4-yl)thiazol-2-yl)pyridin-3-yl)-1-((1-methyl-1H-imidazol-4-yl)methyl)-4-oxo-1,4-dihydro-1,7-naphthyridine-3-carboxylic acid], in assay [1], the inhibition at 1 µM was 109%.

Turning to `CCNC(=O)Nc1cc(-c2nc(C(F)(F)F)cs2)c(-c2cc3c(=O)c(C(=O)O)cn(CC)c3nc2N2CCC(N)C2)cn1` (centres unmarked) [Example 77], the inhibition at 1 µM in assay [1] is 105%. On the same count and under the same terms, the result for `CCNC(=O)Nc1cc(-c2nc(C(F)(F)F)cs2)c(-c2cc3c(=O)c(C(=O)O)cn([C@H](CO)C(C)(C)C)c3nc2N2CCC(N)C2)cn1` (stereo partly drawn) [Example 78, 7-(3-aminopyrrolidin-1-yl)-6-(6-(3-ethylureido)-4-(4-(trifluoromethyl)thiazol-2-yl)pyridin-3-yl)-1-((S)-1-hydroxy-3,3-dimethylbutan-2-yl)-4-oxo-1,4-dihydro-1,8-naphthyridine-3-carboxylic acid] reads 98%.
